Results: patent US8163793B2, “Proline derivatives” (Hoffman-La Roche Inc., priority 2009, dated 2012)

Tests used:
Cathepsin S = Cathepsin S (UniProt P25774); experiment: Cathepsin enzyme inhibition assay (fluorogenic peptide substrate Z-Val-Val-Arg-AMC), Cathepsin S; assay type: biochemical, human and mouse; details: enzyme 1 nM, substrate 20 μM, pH 6.5; read-out: CatS IC50
Method in brief: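 Human or mouse cathepsin S (1 nM) was run in 100 mM potassium phosphate pH 6.5 with 5 mM EDTA, 0.001% Triton X-100 and 5 mM DTT. The rise in AMC fluorescence from cleavage was measured, and IC50 values were calculated by standard methods and expressed in μM.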

Cat L = Cat L (UniProt P07711); experiment: Cathepsin enzyme inhibition assay (fluorogenic peptide substrate Z-Val-Val-Arg-AMC), Cathepsin L; assay type: biochemical, human and mouse; details: enzyme 1 nM, substrate 20 μM, pH 6.5; read-out: CatL IC50
Method in brief: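 Cathepsin L at 1 nM was mixed with compound, then started with 20 μM Z-Val-Val-Arg-AMC in pH 6.5 potassium phosphate with EDTA, Triton X-100 and 5 mM DTT. AMC fluorescence (ex 360/em 465 nm) was followed over 20 min. IC50 is given in μM.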

Which IC50 (Cathepsin S) does the source give for `CC(=O)Nc1cccc(-n2nc(C)cc2N2C[C@H](S(=O)(=O)c3ccccc3C(F)(F)F)C[C@H]2C(=O)NC2(C#N)CC2)c1` [Example 356, (2S,4R)-1-[2-(3-Acetylamino-phenyl)-5-methyl-2H-pyrazol-3-yl]-4-(2-trifluoromethyl-benzenesulfonyl)-pyrrolidine-2-carboxylic acid (1-cyano-cyclopropyl)-amide] here?
Its IC50 is 0.06 nM.

What about the IC50 (Cat L) of the same compound?
Its IC50 is 31800 nM.

With `CC(=O)Nc1cccc(-n2nc(C)cc2N2C[C@H](S(=O)(=O)c3ccccc3C(F)(F)F)C[C@@H]2C(=O)NC2(C#N)CC2)c1` [Example 357, (2R,4R)-1-[2-(3-Acetylamino-phenyl)-5-methyl-2H-pyrazol-3-yl]-4-(2-trifluoromethyl-benzenesulfonyl)-pyrrolidine-2-carboxylic acid (1-cyano-cyclopropyl)-amide] as the compound, how does the IC50 (Cathepsin S) read?
The IC50 was 17.5 nM.

And the IC50 (Cat L)?
The IC50 was at least 25000 nM.

`N#Cc1cccc(N2CC(S(=O)(=O)c3ccccc3C(F)(F)F)CC2C(=O)NC2(C#N)CC2)c1` (stereo not drawn) [Example 358, 1-(3-Cyano-phenyl)-4-(2-trifluoromethyl-benzenesulfonyl)-pyrrolidine-2-carboxylic acid (1-cyano-cyclopropyl)-amide] was tested. Which IC50 (Cathepsin S) did it give?
Its IC50 is 0.5 nM.

What about the IC50 (Cat L) of the same compound?
The IC50 was at least 25000 nM.

With `Cc1cc(N2C[C@H](S(=O)(=O)c3ccccc3Cl)C[C@H]2C(=O)NC2(C#N)CC2)n(CCc2ccccc2)n1` [Example 359, (2S,4R)-4-(2-Chloro-benzenesulfonyl)-1-(5-methyl-2-phenethyl-2H-pyrazol-3-yl)-pyrrolidine-2-carboxylic acid (1-cyano-cyclopropyl)-amide] as the compound, how does the IC50 (Cathepsin S) read?
Its IC50 is 0.67 nM.

What about the IC50 (Cat L) of the same compound?
Its IC50 is 1050 nM.

Which results are given for `N#CC1(NC(=O)[C@@H]2C[C@@H](S(=O)(=O)c3ccccc3C(F)(F)F)CN2C(=O)C2(c3ccc(Cl)cc3)CCC2)CC1` [Example 360, (2S,4R)-1-[1-(4-Chloro-phenyl)-cyclobutanecarbonyl]-4-(2-trifluoromethyl-benzenesulfonyl)-pyrrolidine-2-carboxylic acid (1-cyano-cyclopropyl)-amide]?
IC50 (Cathepsin S): 0.185 nM; IC50 (Cat L): 1180 nM

With `N#CC1(NC(=O)[C@@H]2C[C@@H](S(=O)(=O)c3ccccc3C(F)(F)F)CN2C(=O)C2(c3ccc(Cl)nc3)CC2)CC1` [Example 361, (2S,4R)-1-[1-(6-Chloro-pyridin-3-yl)-cyclopropanecarbonyl]-4-(2-trifluoromethyl-benzenesulfonyl)-pyrrolidine-2-carboxylic acid (1-cyano-cyclopropyl)-amide] as the compound, how does the IC50 (Cathepsin S) read?
The IC50 was 0.02 nM.

What about the IC50 (Cat L) of the same compound?
The IC50 was 995 nM.

Which results are given for `N#CC1(NC(=O)C2CC(S(=O)(=O)c3ccccc3C(F)(F)F)CN2C2CCOCC2)CC1` (stereo not drawn) [Example 362, 1-(Tetrahydro-pyran-4-yl)-4-(2-trifluoromethyl-benzenesulfonyl)-pyrrolidine-2-carboxylic acid (1-cyano-cyclopropyl)-amide]?
IC50 (Cathepsin S): 380 nM; IC50 (Cat L): ≥ 25000 nM

`N#CC1(NC(=O)[C@@H]2C[C@@H](S(=O)(=O)c3ccccc3C(F)(F)F)CN2c2cc(C3CC3)nn2-c2ccc(C(F)(F)F)cc2)CC1` [Example 363, (2S,4R)-1-[5-Cyclopropyl-2-(4-trifluoromethyl-phenyl)-2H-pyrazol-3-yl]-4-(2-trifluoromethyl-benzenesulfonyl)-pyrrolidine-2-carboxylic acid (1-cyano-cyclopropyl)-amide] was tested. Which IC50 (Cathepsin S) did it give?
The IC50 was 1.5 nM.

What about the IC50 (Cat L) of the same compound?
Its IC50 is 10800 nM.

Which results are given for `CC(C)(C)OC(=O)N1CCC(N2CC(S(=O)(=O)c3ccccc3C(F)(F)F)CC2C(=O)NC2(C#N)CC2)CC1` (stereo not drawn) [Example 364, 4-[2-(1-Cyano-cyclopropylcarbamoyl)-4-(2-trifluoromethyl-benzenesulfonyl)-pyrrolidin-1-yl]-piperidine-1-carboxylic acid tert-butyl ester]?
IC50 (Cathepsin S): 295 nM; IC50 (Cat L): ≥ 25000 nM

For `N#CC1(NC(=O)[C@@H]2C[C@@H](S(=O)(=O)c3ccc(OCC(F)(F)F)cc3Cl)CN2CC2(c3ccc(Cl)cc3)CC2)CC1` [Example 365, (2S,4R)-1-[1-(4-Chloro-phenyl)-cyclopropylmethyl]-4-[2-chloro-4-(2,2,2-trifluoro-ethoxy)-benzenesulfonyl]-pyrrolidine-2-carboxylic acid (1-cyano-cyclopropyl)-amide], which IC50 (Cathepsin S) is on record?
The IC50 was 240 nM.

And the IC50 (Cat L)?
Its IC50 is at least 25000 nM.

Which IC50 (Cathepsin S) does the source give for `N#CC1(NC(=O)[C@@H]2C[C@@H](S(=O)(=O)c3ccc(OCC(F)(F)F)cc3C(F)(F)F)CN2c2nnc(C(F)(F)F)s2)CC1` [Example 366, (2S,4R)-4-[4-(2,2,2-Trifluoro-ethoxy)-2-trifluoromethyl-benzenesulfonyl]-1-(5-trifluoromethyl-[1,3,4]thiadiazol-2-yl)-pyrrolidine-2-carboxylic acid (1-cyano-cyclopropyl)-amide] here?
The IC50 was 0.327 nM.

And the IC50 (Cat L)?
Its IC50 is at least 25000 nM.

Which results are given for `N#CC1(NC(=O)C2CC(S(=O)(=O)c3ccccc3C(F)(F)F)CN2c2cccc(OC(F)(F)F)c2)CC1` (stereo not drawn) [Example 367, 1-(3-Trifluoromethoxy-phenyl)-4-(2-trifluoromethyl-benzenesulfonyl)-pyrrolidine-2-carboxylic acid (1-cyano-cyclopropyl)-amide]?
IC50 (Cathepsin S): 1.57 nM; IC50 (Cat L): ≥ 25000 nM

For `N#CC1(NC(=O)[C@@H]2C[C@@H](S(=O)(=O)c3ccc(F)cc3Cl)CN2C(=O)C2(c3ccc(Cl)nc3)CC2)CC1` [Example 368, (2S,4R)-4-(2-Chloro-4-fluoro-benzenesulfonyl)-1-[1-(6-chloro-pyridin-3-yl)-cyclopropanecarbonyl]-pyrrolidine-2-carboxylic acid (1-cyano-cyclopropyl)-amide], which IC50 (Cathepsin S) is on record?
Its IC50 is 0.21 nM.

What about the IC50 (Cat L) of the same compound?
Its IC50 is 267 nM.

For `CN1CCN(c2ccc(S(=O)(=O)[C@@H]3C[C@@H](C(=O)NC4(C#N)CC4)N(C(=O)C4(c5ccc(Cl)nc5)CC4)C3)c(Cl)c2)CC1` [Example 369, (2S,4R)-4-[2-Chloro-4-(4-methyl-piperazin-1-yl)-benzenesulfonyl]-1-[1-(6-chloro-pyridin-3-yl)-cyclopropanecarbonyl]-pyrrolidine-2-carboxylic acid (1-cyano-cyclopropyl)-amide; Compound with Formic Acid], which IC50 (Cathepsin S) is on record?
Its IC50 is 0.07 nM.

What about the IC50 (Cat L) of the same compound?
Its IC50 is 26.3 nM.

With `CC(C)N1CCN(c2ccc(S(=O)(=O)[C@@H]3C[C@@H](C(=O)NC4(C#N)CC4)N(C(=O)C4(c5ccc(Cl)nc5)CC4)C3)c(Cl)c2)CC1` [Example 370, (2S,4R)-4-[2-Chloro-4-(4-isopropyl-piperazin-1-yl)-benzenesulfonyl]-1-[1-(6-chloro-pyridin-3-yl)-cyclopropanecarbonyl]-pyrrolidine-2-carboxylic acid (1-cyano-cyclopropyl)-amide; Compound with Formic Acid] as the compound, how does the IC50 (Cathepsin S) read?
The IC50 was 0.07 nM.

And the IC50 (Cat L)?
The IC50 was 21.7 nM.

How did the IC50 (Cathepsin S) turn out when `CC(C)(C)N1CCN(c2ccc(S(=O)(=O)[C@@H]3C[C@@H](C(=O)NC4(C#N)CC4)N(C(=O)C4(c5ccc(Cl)nc5)CC4)C3)c(Cl)c2)CC1` [Example 371, (2S,4R)-4-[4-(4-tert-Butyl-piperazin-1-yl)-2-chloro-benzenesulfonyl]-1-[1-(6-chloro-pyridin-3-yl)-cyclopropanecarbonyl]-pyrrolidine-2-carboxylic acid (1-cyano-cyclopropyl)-amide; Compound with Formic Acid] was run?
Its IC50 is 0.08 nM.

And the IC50 (Cat L)?
Its IC50 is 26.3 nM.

Which IC50 (Cathepsin S) does the source give for `COCCN1CCN(c2ccc(S(=O)(=O)[C@@H]3C[C@@H](C(=O)NC4(C#N)CC4)N(C(=O)C4(c5ccc(Cl)nc5)CC4)C3)c(Cl)c2)CC1` [Example 372, (2S,4R)-4-{2-Chloro-4-[4-(2-methoxy-ethyl)-piperazin-1-yl]-benzenesulfonyl}-1-[1-(6-chloro-pyridin-3-yl)-cyclopropanecarbonyl]-pyrrolidine-2-carboxylic acid (1-cyano-cyclopropyl)-amide; Compound with Formic Acid] here?
The IC50 was 0.08 nM.

What about the IC50 (Cat L) of the same compound?
The IC50 was 44.3 nM.

How did the IC50 (Cathepsin S) turn out when `N#CC1(NC(=O)[C@@H]2C[C@@H](S(=O)(=O)c3ccc(N4CCN5CCC[C@H]5C4)cc3Cl)CN2C(=O)C2(c3ccc(Cl)nc3)CC2)CC1` [Example 373, (2S,4R)-4-((S)-2-Chloro-4-hexahydro-pyrrolo[1,2-a]pyrazin-2-yl-benzenesulfonyl)-1-[1-(6-chloro-pyridin-3-yl)-cyclopropanecarbonyl]-pyrrolidine-2-carboxylic acid (1-cyano-cyclopropyl)-amide; Compound with Formic Acid] was run?
The IC50 was 0.08 nM.

What about the IC50 (Cat L) of the same compound?
Its IC50 is 42.7 nM.

Which results are given for `N#CC1(NC(=O)[C@@H]2C[C@@H](S(=O)(=O)c3ccc(N4CCN(C5CC5)CC4)cc3Cl)CN2C(=O)C2(c3ccc(Cl)nc3)CC2)CC1` [Example 374, (2S,4R)-4-[2-Chloro-4-(4-cyclopropyl-piperazin-1-yl)-benzenesulfonyl]-1-[1-(6-chloro-pyridin-3-yl)-cyclopropanecarbonyl]-pyrrolidine-2-carboxylic acid (1-cyano-cyclopropyl)-amide; Compound with Formic Acid]?
IC50 (Cathepsin S): 0.07 nM; IC50 (Cat L): 50.3 nM

What does the source list for `COc1ccc(S(=O)(=O)[C@@H]2C[C@@H](C(=O)NC3(C#N)CC3)N(c3cc(C)nn3C3CCC3)C2)c(Cl)c1` [Example 375, (2S,4R)-4-(2-Chloro-4-methoxy-benzenesulfonyl)-1-(2-cyclobutyl-5-methyl-2H-pyrazol-3-yl)-pyrrolidine-2-carboxylic acid (1-cyano-cyclopropyl)-amide]?
IC50 (Cathepsin S): 0.29 nM; IC50 (Cat L): 5370 nM

For `COc1ccc(S(=O)(=O)[C@@H]2C[C@@H](C(=O)NC3(C#N)CC3)N(c3cc(C)nn3Cc3ccccc3)C2)c(Cl)c1` [Example 376, (2S,4R)-1-(2-Benzyl-5-methyl-2H-pyrazol-3-yl)-4-(2-chloro-4-methoxy-benzenesulfonyl)-pyrrolidine-2-carboxylic acid (1-cyano-cyclopropyl)-amide], which IC50 (Cathepsin S) is on record?
The IC50 was 0.657 nM.

What about the IC50 (Cat L) of the same compound?
Its IC50 is 1760 nM.
